Tested on: chemokines/ cytokines in the serum
Test: Chemokine/Cytokine Multiplex Assay on serum in EIU
Format: in vivo, Lewis rats
Conditions: tendency, not statistically significant
Description: Aqueous humor and vitreous were collected and pooled from each enucleated eye. Ocular fluids were immediately centrifuged and the cell-free fractions were collected and frozen at -20°C before analysis by Multiplex assay. Blood samples were first clotted at room temperature for 2 hours and then at 4°C overnight. Serum was collected, centrifuged and the clear supernatant was collected and frozen at -20°C before Multiplex analysis.
In a first set of experiment, 70 rats were randomized into 14 experimental groups with 5 rats per group. Uveitis was induced in each group and rats were killed 6 hours (4 groups), 24 hours (6 groups) and 48 hours (4 groups) after LPS challenge. For each time point tested (i.e. 6h, 24h and 48h), rats treated by intravenous or intravitreous injections of vehicle (NaCl 0.9%) or the JNK-inhibitor (poly-)peptide of SEQ ID NO: 11 were compared to untreated control uveitic rats. Two additional groups, treated by intravenous injection of vehicle and intravitreal injection of dexamethasone were used at 24 hours. Clinical ocular inflammation was recorded only at 24 hours (see Scoring of Endotoxin-Induced Uveitis (EIU) section). At each time point, intraocular fluids from each eye (n=10 per group) and serum from each animal (n=5 per group) were used for Chemokine/Cytokine Multiplex Assay.
Intraocular fluids (diluted to obtain a final volume of 25 µL) and sera (25 µL of 1:5 dilution) were subjected to multiplex bead analysis. This method uses microspheres as the solid support for immunoassays 12 and allows the titration of a greater number of cytokines with increased sensitivity than occurs with ELISA.13 For each sample, seventeen analytes were quantified simultaneously using the rat Cytokine/Chemokine-17plex kit (Milliplex Map Kit, Millipore, Saint-Quentin-en-Yvelines, France) according to the manufacturer's instructions: Chemokines MCP-1/CCL2, MIP-1α/CCL3, RANTES/CCL5, IP-10/CXCL10 (IFN-inducible protein-10) and GRO/KC; proinflammatory mediators IL-1, IL-18 and TNF-; Th1/Th2/Th17 cytokines IL-2 and IFN- / IL-4, IL-5, IL-6, IL-10 and IL-13 / IL-17. […]

CC(C)C[C@@H](NC(=O)[C@@H](Cc1ccccc1)NC(=O)[C@H]1CCCN1C(=O)[C@@H](CCC(N)=O)NC(=O)[C@H](NC(=O)[C@H]1CCCN1C(=O)[C@@H](CCCNC(=N)N)NC(=O)[C@@H](CO)NC(=O)[C@@H](CCC(N)=O)NC(=O)[C@H](N)CC(=O)O)C(C)C)C(=O)N[C@H](CC(N)=O)C(=O)N[C@H](CC(C)C)C(=O)N[C@@H](C(=O)N[C@@H](C(=O)N1CCC[C@@H]1C(=O)N[C@H](CCCNC(=N)N)C(=O)N[C@H](CCCCN)C(=O)N1CCC[C@@H]1C(=O)N[C@H](CCCNC(=N)N)C(=O)N1CCC[C@@H]1C(=O)N1CCC[C@@H]1C(=O)N[C@H](CCCNC(=N)N)C(=O)N[C@H](CCCNC(=N)N)C(=O)N[C@H](CCCNC(=N)N)C(=O)N[C@H](CCC(N)=O)C(=O)N[C@H](CCCNC(=N)N)C(=O)N[C@H](CCCNC(=N)N)C(=O)N[C@H](CCCCN)C(=O)N[C@H](CCCCN)C(=O)N[C@H](CCCNC(=N)N)C(=O)NCC(=O)O)[C@H](C)O)[C@H](C)O [SEQ ID NO: 11]
reduction: IL-2 (after IV administration) | MIP-1α (after IV administration) | IL-2 (after IVT)
